Assay results reported in patent US20040038369A1, “Airway-specific trypsin-like enzymes and method of using the same” (priority 2000, published 2004).

Tested on: EGFR
Experiment: Tyrosine phosphorylation of EGFR in NCI-H292 cells
Type: cell-based, human
Conditions: HAST 0.3 U/mL, 30 to 240 minutes
Procedure: NCI-H292 cells (purchased from ATCC) were suspended in 10% FCS-containing RPMI-1640 (produced by Gibco Corp.) and then sowed on a 12 well plate (made by Falcon Corp.) in a density of 6.0×10^4 cells/cm^2. The cells were cultured for 72 hours, subjected to the replacement of the culture medium by 0.1% BSA-containing RPMI-1640, and further cultured for 24 hours.
On the day of the treatment, the culture solution of the wells was replaced by RPMI-1640 (containing 0.1% BSA) containing HAST (0.3 U/mL), EGF (1 μg/mL), and the treatments were carried out for 30, 60, 120, 180, 240 minutes, respectively.
The cells treated with the HAST or the EGF for the prescribed time were twice washed with ice-cooled PBS, mixed with 500 μL of an ice-cooled Lysis buffer solution (50 mM Tris-HCl, pH 7.4, 5 mM EDTA, 1% Triton X-100 (Sigma), 150 mM NaCl, 10% glycerol, 1% Protease inhibitor Cocktail (Sigma), 1% Phosphatase Inhibitor Cocktail (Sigma)), allowed to stand on ice for 15 minutes, and then recovered in a micro tube. The recovered product in the micro tube was centrifuged at 15,000 rpm at 4° C. for 10 minutes, and the supernatant was recovered as a sample. The protein concentration of the sample was assayed with BioRad Protein Assay (produced by Bio Rad Corp.), and properly diluted with the Lysis buffer solution so that the protein concentrations in all the samples become 1.48 mg/mL. […]

HAST: human airway-specific trypsin-like enzyme; propeptide moiety bound to trypsin-like protein moiety via a disulfide bond
tyrosine phosphorylation of EGFR: activated EGFR
